Counter-ions that a name gives are not always drawn.
How the values were obtained:
ISC-enriched organoids [1] = assay: Primary screen, 384-well 2.5-D organoid differentiation (ENR+CD, 6 days): basal lysozyme secretion (LYZ.NS); type: cell-based, murine; conditions: for Dose.FC.LYZ.NS: FC vs plate median; for Z.LYZ.NS: standard z score of FC; for Dose.FC.LYZ.NS (log 2 fold change, basal lysozyme secretion): vs plate median; for SSMD.LYZ.NS: strictly standardized mean difference
From the text: (§1) High-throughput screening.

ISC-enriched organoids [2] = assay: Primary screen, 384-well 2.5-D organoid differentiation (ENR+CD, 6 days): carbachol-induced lysozyme secretion (LYZ.S); type: cell-based, murine; conditions: for Dose.FC.LYZ.S: FC vs plate median; for Dose.FC.LYZ.S (log 2 fold change, carbachol-induced lysozyme secretion): vs plate median; for Z.LYZ.S: standard z score; for SSMD.LYZ.S: strictly standardized mean difference
From the text: as §1

ISC-enriched organoids [3] = assay: Primary screen, 384-well 2.5-D organoid differentiation (ENR+CD, 6 days, Target Selective Inhibitor Library, vs whole-plate median): ATP (CellTiter-Glo 3D, CTG); conditions: for Dose.FC.CTG: FC vs plate median; for Dose.FC.CTG (log 2 fold change, ATP): vs plate median; for SSMD.CTG: strictly standardized mean difference
[4] = Dose 0.08 uM, standard z score of FC
[5] = Dose 0.40 uM, standard z score of FC
[6] = Dose 2.00 uM, standard z score of FC
[7] = Dose 10.00 uM, standard z score of FC
[8] = primary screen, 1st of the 4 dose lines of the treatment (dose not given)
[9] = primary screen, 2nd of the 4 dose lines of the treatment (dose not given)
[10] = primary screen, 3rd of the 4 dose lines of the treatment (dose not given)
[11] = primary screen, 4th of the 4 dose lines of the treatment (dose not given)

Compound: CO[C@H]1C[C@@H]2CC[C@@H](C)[C@@](O)(O2)C(=O)C(=O)N2CCCC[C@H]2C(=O)O[C@H]([C@H](C)C[C@@H]2CC[C@@H](OCCO)[C@H](OC)C2)CC(=O)[C@H](C)/C=C(\C)[C@@H](O)[C@@H](OC)C(=O)[C@H](C)C[C@H](C)/C=C/C=C/C=C/1C [Everolimus (RAD001)]
- Dose.FC.LYZ.NS (ISC-enriched organoids [1]; Dose 0.08 uM, ENR+CD, 6 days): 0.068 log 2 fold change
- Z.LYZ.NS (ISC-enriched organoids [1]; Dose 0.08 uM): 0.590
- Dose.FC.LYZ.NS (ISC-enriched organoids [1]; Dose 0.40 uM, ENR+CD, 6 days): 0.110 log 2 fold change
- Z.LYZ.NS (ISC-enriched organoids [1]; Dose 0.40 uM): 0.956
- Dose.FC.LYZ.NS (ISC-enriched organoids [1]; Dose 2.00 uM, ENR+CD, 6 days): −0.003 log 2 fold change
- Z.LYZ.NS (ISC-enriched organoids [1]; Dose 2.00 uM): −0.030
- Dose.FC.LYZ.NS (ISC-enriched organoids [1]; Dose 10.00 uM, ENR+CD, 6 days): −0.024 log 2 fold change
- Z.LYZ.NS (ISC-enriched organoids [1]; Dose 10.00 uM): −0.210
- Dose.FC.LYZ.S (ISC-enriched organoids [2]; Dose 0.08 uM, ENR+CD, 6 days): −0.012 log 2 fold change
- Dose.FC.LYZ.S (ISC-enriched organoids [2]; Dose 0.40 uM, ENR+CD, 6 days): −0.007 log 2 fold change
- Dose.FC.LYZ.S (ISC-enriched organoids [2]; Dose 2.00 uM, ENR+CD, 6 days): −0.039 log 2 fold change
- Dose.FC.LYZ.S (ISC-enriched organoids [2]; Dose 10.00 uM, ENR+CD, 6 days): −0.096 log 2 fold change
- Dose.FC.CTG (ISC-enriched organoids [3]; Dose 0.08 uM, ENR+CD, 6 days): 0.392 log 2 fold change
- Z.CTG (ISC-enriched organoids [3]; [4]): 0.936
- Dose.FC.CTG (ISC-enriched organoids [3]; Dose 0.40 uM, ENR+CD, 6 days): 0.127 log 2 fold change
- Z.CTG (ISC-enriched organoids [3]; [5]): 0.304
- Dose.FC.CTG (ISC-enriched organoids [3]; Dose 2.00 uM, ENR+CD, 6 days): 0.132 log 2 fold change
- Z.CTG (ISC-enriched organoids [3]; [6]): 0.314
- Dose.FC.CTG (ISC-enriched organoids [3]; Dose 10.00 uM, ENR+CD, 6 days): −0.111 log 2 fold change
- Z.CTG (ISC-enriched organoids [3]; [7]): −0.266

Compound: Cc1cc(Nc2cc(N3CCN(C)CC3)nc(Sc3ccc(NC(=O)C4CC4)cc3)n2)n[nH]1 [VX-680 (Tozasertib, MK-0457)]
- Z.LYZ.NS (standard z score) (ISC-enriched organoids [1]; dose 0.08 uM): −0.371
- Dose.FC.LYZ.NS (log 2 fold change, basal lysozyme secretion) (ISC-enriched organoids [1]; dose 0.08 uM): −0.043
- Z.LYZ.NS (standard z score) (ISC-enriched organoids [1]; dose 0.40 uM): −1.317
- Dose.FC.LYZ.NS (log 2 fold change, basal lysozyme secretion) (ISC-enriched organoids [1]; dose 0.40 uM): −0.151
- Z.LYZ.NS (standard z score) (ISC-enriched organoids [1]; dose 2.00 uM): −1.450
- Dose.FC.LYZ.NS (log 2 fold change, basal lysozyme secretion) (ISC-enriched organoids [1]; dose 2.00 uM): −0.166
- Z.LYZ.NS (standard z score) (ISC-enriched organoids [1]; dose 10.00 uM): −2.069
- Dose.FC.LYZ.NS (log 2 fold change, basal lysozyme secretion) (ISC-enriched organoids [1]; dose 10.00 uM): −0.238
- Dose.FC.LYZ.S (log 2 fold change, carbachol-induced lysozyme secretion) (ISC-enriched organoids [2]; dose 0.08 uM): −0.078
- Dose.FC.LYZ.S (log 2 fold change, carbachol-induced lysozyme secretion) (ISC-enriched organoids [2]; dose 0.40 uM): −0.245
- Dose.FC.LYZ.S (log 2 fold change, carbachol-induced lysozyme secretion) (ISC-enriched organoids [2]; dose 2.00 uM): −0.308
- Dose.FC.LYZ.S (log 2 fold change, carbachol-induced lysozyme secretion) (ISC-enriched organoids [2]; dose 10.00 uM): −0.342
- Z.CTG (standard z score) (ISC-enriched organoids [3]; dose 0.08 uM): −0.359
- Dose.FC.CTG (log 2 fold change, ATP) (ISC-enriched organoids [3]; dose 0.08 uM): −0.150
- Z.CTG (standard z score) (ISC-enriched organoids [3]; dose 0.40 uM): −1.425
- Dose.FC.CTG (log 2 fold change, ATP) (ISC-enriched organoids [3]; dose 0.40 uM): −0.596
- Z.CTG (standard z score) (ISC-enriched organoids [3]; dose 2.00 uM): −1.686
- Dose.FC.CTG (log 2 fold change, ATP) (ISC-enriched organoids [3]; dose 2.00 uM): −0.706
- Z.CTG (standard z score) (ISC-enriched organoids [3]; dose 10.00 uM): −2.291
- Dose.FC.CTG (log 2 fold change, ATP) (ISC-enriched organoids [3]; dose 10.00 uM): −0.959

Compound: C[C@]1(O)C[C@@H](c2nc(-c3ccc4ccc(-c5ccccc5)nc4c3)c3c(N)nccn32)C1 [OSI-906 (Linsitinib)]
- Dose.FC.LYZ.NS (ISC-enriched organoids [1]; Dose 0.08 uM, primary screen): 0.013 log 2 fold change
- Z.LYZ.NS (ISC-enriched organoids [1]; Dose 0.08 uM): 0.110
- Dose.FC.LYZ.NS (ISC-enriched organoids [1]; Dose 0.40 uM, primary screen): −0.093 log 2 fold change
- Z.LYZ.NS (ISC-enriched organoids [1]; Dose 0.40 uM): −0.806
- Dose.FC.LYZ.NS (ISC-enriched organoids [1]; Dose 2.00 uM, primary screen): −0.216 log 2 fold change
- Z.LYZ.NS (ISC-enriched organoids [1]; Dose 2.00 uM): −1.882
- Dose.FC.LYZ.NS (ISC-enriched organoids [1]; Dose 10.00 uM, primary screen): −0.229 log 2 fold change
- Z.LYZ.NS (ISC-enriched organoids [1]; Dose 10.00 uM): −1.996
- Dose.FC.LYZ.S (ISC-enriched organoids [2]; Dose 0.08 uM, primary screen): −0.026 log 2 fold change
- Dose.FC.LYZ.S (ISC-enriched organoids [2]; Dose 0.40 uM, primary screen): −0.119 log 2 fold change
- Dose.FC.LYZ.S (ISC-enriched organoids [2]; Dose 2.00 uM, primary screen): −0.288 log 2 fold change
- Dose.FC.LYZ.S (ISC-enriched organoids [2]; Dose 10.00 uM, primary screen): −0.328 log 2 fold change
- Dose.FC.CTG (ISC-enriched organoids [3]; Dose 0.08 uM, primary screen): −0.324 log 2 fold change
- Z.CTG (ISC-enriched organoids [3]; [4]): −0.775
- Dose.FC.CTG (ISC-enriched organoids [3]; Dose 0.40 uM, primary screen): −0.158 log 2 fold change
- Z.CTG (ISC-enriched organoids [3]; [5]): −0.377
- Dose.FC.CTG (ISC-enriched organoids [3]; Dose 2.00 uM, primary screen): −0.277 log 2 fold change
- Z.CTG (ISC-enriched organoids [3]; [6]): −0.661
- Dose.FC.CTG (ISC-enriched organoids [3]; Dose 10.00 uM, primary screen): −0.391 log 2 fold change
- Z.CTG (ISC-enriched organoids [3]; [7]): −0.934

Compound: CCc1c2c(nc3ccc(OC(=O)N4CCC(N5CCCCC5)CC4)cc13)-c1cc3c(c(=O)n1C2)COC(=O)[C@]3(O)CC [Irinotecan HCl Trihydrate]
- SSMD.LYZ.NS (ISC-enriched organoids [1]; [8]): −0.182
- SSMD.LYZ.NS (ISC-enriched organoids [1]; [9]): −0.831
- SSMD.LYZ.NS (ISC-enriched organoids [1]; [10]): −1.832
- SSMD.LYZ.NS (ISC-enriched organoids [1]; [11]): −2.032
- Z.LYZ.S (ISC-enriched organoids [2]; [8]): −0.261
- Z.LYZ.S (ISC-enriched organoids [2]; [9]): −1.020
- Z.LYZ.S (ISC-enriched organoids [2]; [10]): −1.895
- Z.LYZ.S (ISC-enriched organoids [2]; [11]): −2.375
- SSMD.LYZ.S (ISC-enriched organoids [2]; [8]): −0.311
- SSMD.LYZ.S (ISC-enriched organoids [2]; [9]): −0.747
- SSMD.LYZ.S (ISC-enriched organoids [2]; [10]): −1.550
- SSMD.LYZ.S (ISC-enriched organoids [2]; [11]): −1.941
- Z.CTG (ISC-enriched organoids [3]; Dose 0.08 uM, primary screen, standard z score): −0.199
- Z.CTG (ISC-enriched organoids [3]; Dose 0.40 uM, primary screen, standard z score): −0.491
- Z.CTG (ISC-enriched organoids [3]; Dose 2.00 uM, primary screen, standard z score): −0.758
- Z.CTG (ISC-enriched organoids [3]; Dose 10.00 uM, primary screen, standard z score): −1.404
- SSMD.CTG (ISC-enriched organoids [3]; [8]): −0.305
- SSMD.CTG (ISC-enriched organoids [3]; [9]): −0.694
- SSMD.CTG (ISC-enriched organoids [3]; [10]): −1.060
- SSMD.CTG (ISC-enriched organoids [3]; [11]): −1.809

Source: US20230398130A1, “METHODS AND COMPOSITIONS FOR DIFFERENTIATING STEM CELLS” (Massachusetts Institute of Technology, priority 2020, published 2023)
